Laboratory results taken from patent EP4603105A1, “PHARMACEUTICAL COMPOSITION CONTAINING CYCLIC COMPOUND HAVING SELECTIVE KRAS INHIBITORY EFFECT AGAINST HRAS AND NRAS” (CHUGAI SEIYAKU KABUSHIKI KAISHA, priority 2022, dated 2024).
Read-outs that look alike come from different tables or passages of the source.

What was measured:
[1] = system: human lung cancer strain NCI-H441; test: NCI-H441 cell proliferation inhibitory activity (CellTiter-Glo, 4 days); type: cell-based; settings: read-out: NCl-H441 IC50
In short: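 Step one: dispense the test compound in serial DMSO dilutions. Step three: add the reagent and measure […].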

[2] = target: GDP-bound KRAS wild-type protein (Homo sapiens, UniProt P01116); test: Binding to KRAS by surface plasmon resonance (SPR), dissociation constant KD
In short: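 GDP-bound biotin-Avi RAS captured at ~100–300 RU, 30°C, pH 7.4 HBS containing 10 µM GDP, 10 mM MgCl2, 1 mM DTT, 0.01% Tween 20 and 4% DMSO. KD by 1:1 fitting.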

[3] = target: HRAS wild-type protein (Homo sapiens, UniProt P01112); test: Binding to HRAS by surface plasmon resonance (SPR), KD and KD ratio to KRAS
In short: (§1)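 Captured GDP-RAS (~100–300 RU) was exposed to increasing compound concentrations, 75 s per step, in running buffer with 10 µM GDP, 10 mM MgCl2 and 4% DMSO at pH 7.4.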

[4] = target: GDP-bound NRAS wild-type protein (Homo sapiens, UniProt P01111); test: Binding to NRAS by surface plasmon resonance (SPR), KD and KD ratio to KRAS
In short: as §1

[5] = ratio of KD for HRAS wild-type protein to KD for KRAS
[6] = ratio of KD for GDP-bound NRAS wild-type protein to KD for KRAS
[7] = 50% proliferation inhibitory concentration, four days
[8] = Single Cycle Kinetics, 1:1 binding model
[9] = ratio of KD with respect to HRAS wild-type protein to KD with respect to KRAS
[10] = ratio of KD with respect to GDP-bound NRAS wild-type protein to KD with respect to KRAS

GDP-bound NRAS wild-type protein, sequence (P01111 whole entry): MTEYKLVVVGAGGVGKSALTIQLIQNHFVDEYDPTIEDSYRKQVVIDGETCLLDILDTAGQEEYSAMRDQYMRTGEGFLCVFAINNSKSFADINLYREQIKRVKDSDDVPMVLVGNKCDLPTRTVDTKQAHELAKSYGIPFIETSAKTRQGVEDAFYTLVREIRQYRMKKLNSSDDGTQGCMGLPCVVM
HRAS wild-type protein, sequence (P01112 whole entry): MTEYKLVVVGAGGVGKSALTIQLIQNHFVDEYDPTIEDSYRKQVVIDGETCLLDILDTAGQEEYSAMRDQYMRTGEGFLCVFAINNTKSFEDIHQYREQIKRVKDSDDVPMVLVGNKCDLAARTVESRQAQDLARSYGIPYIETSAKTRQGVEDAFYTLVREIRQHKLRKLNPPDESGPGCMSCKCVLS
GDP-bound KRAS wild-type protein, sequence (P01116 1-188 isoform P01116-2): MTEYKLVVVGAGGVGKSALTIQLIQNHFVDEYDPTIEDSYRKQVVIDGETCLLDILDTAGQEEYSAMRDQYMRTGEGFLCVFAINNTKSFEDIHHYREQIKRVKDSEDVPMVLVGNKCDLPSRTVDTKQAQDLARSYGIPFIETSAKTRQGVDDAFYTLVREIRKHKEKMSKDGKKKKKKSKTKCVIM

| SMILES | IC50 ([1]; NCI-H441 cells, 4 days) [nM] | Kd ([2]; Single Cycle Kinetics) [nM] | Kd ([2]; 1:1 binding model) [nM] | IC50 [1, 7] [nM] | Kd [2, 8] [nM] | HRAS /KRAS [3, 5] | NRAS /KRAS [4, 6] | HRAS /KRAS [3, 9] | NRAS /KRAS [4, 10] |
| --- | --- | --- | --- | --- | --- | --- | --- | --- | --- |
| CCO[C@@H]1C[C@H]2C(=O)NC3(CC(C)(C)C3)C(=O)N(C)[C@@H](C3CCCC3)C(=O)N(C)[C@H](C(=O)N(C)CC)CC(=O)N(C)[C@@H]([C@H](C)OC)C(=O)N[C@@H]([C@@H](C)CC)C(=O)N(C)CC(=O)N(C)[C@H]3C/C=C\CCN(C3=O)[C@@H](Cc3ccc(C)cc3)C(=O)N(C)CC(=O)N[C@@H](CCc3ccc(C(F)(F)F)c(Cl)c3)C(=O)N2C1 [PP3227] | 23.2 | 0.21 | – | – | – | A (a compound having 10 or more and less than 20 is denoted as A) | A (a compound having 10 or more and less than 20 is denoted as A) | – | – |
| CCO[C@@H]1C[C@H]2C(=O)NC3(CC(C)(C)C3)C(=O)N(C)[C@@H](C3CCCC3)C(=O)N(C)[C@H](C(=O)N(C)CC)CC(=O)N(C)[C@@H]([C@H](C)OC)C(=O)N[C@@H]([C@@H](C)CC)C(=O)N(C3CC3)CC(=O)N(C)[C@H]3C/C=C\CCN(C3=O)[C@@H](Cc3ccc(C(F)(F)F)cc3)C(=O)N(C)CC(=O)N[C@@H](CCc3cc(F)c(C(F)(F)F)c(F)c3)C(=O)N2C1 [PP3220] | 25.7 | 0.52 | – | – | – | A (a compound having 10 or more and less than 20 is denoted as A) | A (a compound having 10 or more and less than 20 is denoted as A) | – | – |
| CCCOC[C@H]1C(=O)N[C@@H]([C@@H](C)CC)C(=O)N(C)CC(=O)N(C)[C@H]2C/C=C\CCN(C2=O)[C@@H](CC2CCC(F)(F)CC2)C(=O)N(C)CC(=O)N[C@@H](CCc2ccc(C(F)(F)F)c(Cl)c2)C(=O)N2C[C@H](OCC)C[C@H]2C(=O)NC2(CC(C)(C)C2)C(=O)N(C)[C@@H](C(CC)CC)C(=O)N(C)[C@H](C(=O)N(C)C)CC(=O)N1C [PP2484] | 74.3 | – | 1 | – | – | A (a compound having 10 or more and less than 20 is denoted as A) | A (a compound having 10 or more and less than 20 is denoted as A) | – | – |
| CCO[C@@H]1C[C@H]2C(=O)NC3(CCC3)C(=O)N(C)[C@@H](C3CCCC3)C(=O)N(C)[C@H](C(=O)N(C)C)CC(=O)N(C)[C@@H](CC(C)C)C(=O)N[C@@H]([C@@H](C)CC)C(=O)N(C)CC(=O)N(C)[C@H]3C/C=C\CCN(C3=O)[C@@H](CC3CCCCC3)C(=O)N(C)CC(=O)N[C@@H](CCc3cc(F)c(C(F)(F)F)c(F)c3)C(=O)N2C1 [PP1467] | – | – | – | 11.2 | 0.12 | – | – | A (a compound having 10 or more and less than 20 is denoted as A) | A (a compound having 10 or more and less than 20 is denoted as A) |
| C#CC[C@H]1C(=O)N[C@@H]([C@@H](C)CC)C(=O)N2CCC[C@H]2C(=O)N(C)[C@H]2C/C=C\CCN(C2=O)[C@@H](Cc2ccc(C(F)(F)F)cc2)C(=O)N(C)CC(=O)N[C@@H](CCc2ccc(C(F)(F)F)c(OC)c2)C(=O)N2C[C@H](OCC)C[C@H]2C(=O)N(C)C2(CCC2)C(=O)N(C)[C@@H](C2CCCC2)C(=O)N(C)[C@H](C(=O)N(C)C)CC(=O)N1C [PP3252] | 4.5 | 0.082 | – | – | – | A (a compound having 10 or more and less than 20 is denoted as A) | A (a compound having 10 or more and less than 20 is denoted as A) | – | – |
| CCO[C@@H]1C[C@H]2C(=O)NC3(CCC3)C(=O)N(C)[C@@H](C3CCCC3)C(=O)N(C)[C@H](C(=O)N3CCOCC3)CC(=O)N(C)[C@@H](CC3CCCCC3)C(=O)N[C@@H]([C@@H](C)CC)C(=O)N(C)CC(=O)N(C)[C@H]3C/C=C\CCN(C3=O)[C@@H](Cc3ccc(C)cc3)C(=O)N(C)CC(=O)N[C@@H](CCc3cc(F)c(C(F)(F)F)c(F)c3)C(=O)N2C1 [PP1420] | – | – | – | 31.4 | 0.35 | – | – | A (a compound having 10 or more and less than 20 is denoted as A) | A (a compound having 10 or more and less than 20 is denoted as A) |
| CC[C@H](C)[C@@H]1NC(=O)[C@H](CC(C)C)N(C)C(=O)C[C@@H](C(=O)N(C)C)N(C)C(=O)[C@H](C2CCCC2)N(C)C(=O)C2(CCCC2)NC(=O)[C@@H]2CCN2C(=O)[C@H](CCc2cc(F)c(C(F)(F)F)c(F)c2)NC(=O)CN(C)C(=O)[C@H](Cc2ccc(C(F)(F)F)cc2)N2CC/C=C(/F)C[C@@H](C2=O)N(C)C(=O)CN(C)C1=O [PP3521] | 36.6 | 2.3 | – | – | – | B (a compound having 3 or more and less than 10 is denoted as B) | B (a compound having 3 or more and less than 10 is denoted as B) | – | – |
| CCC[C@H]1C(=O)N[C@@H]([C@@H](C)CC)C(=O)N(C)CC(=O)N(C)[C@H]2C/C=C\CCN(C2=O)[C@@H](Cc2ccc(C)cc2)C(=O)N(C)CC(=O)N[C@@H](CCc2ccc(C(F)(F)F)c(OC)c2)C(=O)N2CC3(CC3)C[C@H]2C(=O)NC2(CCC2)C(=O)N(C)[C@@H](C(CC)CC)C(=O)N(C)[C@H](C(=O)N(C)C)CC(=O)N1C [PP3422] | 8.4 | 0.39 | – | – | – | A (a compound having 10 or more and less than 20 is denoted as A) | AA (a compound having 20 or more is denoted as AA) | – | – |
| CCC[C@H]1C(=O)N[C@@H]([C@@H](C)CC)C(=O)N(C2CC2)CC(=O)N(C)[C@H]2C/C=C\CCN(C2=O)[C@@H](Cc2ccc(C(F)F)cc2)C(=O)N(C)CC(=O)N[C@@H](CCc2cc(F)c(C(F)(F)F)c(F)c2)C(=O)N2C[C@H](OCC)C[C@H]2C(=O)NC2(CC(C)(C)C2)C(=O)N(C)[C@@H](C(CC)CC)C(=O)N(C)[C@H](C(=O)N(C)C)CC(=O)N1C [PP2527] | 31 | – | 0.65 | – | – | A (a compound having 10 or more and less than 20 is denoted as A) | AA (a compound having 20 or more is denoted as AA) | – | – |
| CCO[C@@H]1C[C@H]2C(=O)NC3(CCC3)C(=O)N(C)[C@@H](C(CC)CC)C(=O)N(C)[C@H](C(=O)N(C)C)CC(=O)N(C)[C@@H](CC)C(=O)N[C@@H]([C@@H](C)CC)C(=O)N(C)CC(=O)N(C)[C@H]3C/C=C\CCN(C3=O)[C@@H](Cc3ccc(C(F)(F)F)cc3)C(=O)N(C)CC(=O)N[C@@H](CCc3ccc(Cl)c(Cl)c3)C(=O)N2C1 [PP1215] | – | – | – | 33.4 | 0.42 | – | – | A (a compound having 10 or more and less than 20 is denoted as A) | AA (a compound having 20 or more is denoted as AA) |

The next lines start with results.

| IC50 ([1]; NCI-H441 cells, 4 days) [nM] | Kd ([2]; Single Cycle Kinetics) [nM] | Kd ([2]; 1:1 binding model) [nM] | IC50 [1, 7] [nM] | Kd [2, 8] [nM] | SMILES | HRAS /KRAS [3, 5] | NRAS /KRAS [4, 6] | HRAS /KRAS [3, 9] | NRAS /KRAS [4, 10] |
| --- | --- | --- | --- | --- | --- | --- | --- | --- | --- |
| 36.6 | – | 0.7 | – | – | CCOC[C@H]1C(=O)N[C@@H]([C@@H](C)CC)C(=O)N2CCC[C@H]2C(=O)N(C)[C@H]2C/C=C\CCN(C2=O)[C@@H](Cc2ccc(C)cc2)C(=O)N(C)CC(=O)N[C@@H](CCc2ccc(C(F)(F)F)c(OC)c2)C(=O)N2C[C@@H](C)C[C@H]2C(=O)NC2(CC(C)(C)C2)C(=O)N(C)[C@@H](C2CCCC2)C(=O)N(C)[C@H](C(=O)N(C)CC)CC(=O)N1C [PP2427] | A (a compound having 10 or more and less than 20 is denoted as A) | AA (a compound having 20 or more is denoted as AA) | – | – |
| 104 | 4.6 | – | – | – | C=CC[C@H]1C(=O)N(C)[C@H](C(=O)N(C)C)CC(=O)N(C)[C@@H](CCC)C(=O)N[C@@H]([C@@H](C)CC)C(=O)N2CCC[C@H]2C(=O)N(C)[C@H]2C/C=C\CCN(C2=O)[C@@H](Cc2ccc(C(F)(F)F)cc2)C(=O)N(C)CC(=O)N[C@@H](CCc2cc(F)c(C(F)(F)F)c(F)c2)C(=O)N2C[C@H](OCC)C[C@H]2C(=O)N(C)C2(CCC2)C(=O)N1C [PP3338] | A (a compound having 10 or more and less than 20 is denoted as A) | A (a compound having 10 or more and less than 20 is denoted as A) | – | – |
| 10.9 | 0.29 | – | – | – | CCC[C@H]1C(=O)N[C@@H]([C@@H](C)CC)C(=O)N2CCC[C@H]2C(=O)N(C)[C@H]2C/C(F)=C\CCN(C2=O)[C@@H](Cc2ccc(C)cc2)C(=O)N(C)CC(=O)N[C@@H](CCc2cc(F)c(C(F)(F)F)c(F)c2)C(=O)N2C[C@H](OCC)C[C@H]2C(=O)N(C)C2(CCC2)C(=O)N(C)[C@@H](C2CCCC2)C(=O)N(C)[C@H](C(=O)N(C)C)CC(=O)N1C [PP3526] | B (a compound having 3 or more and less than 10 is denoted as B) | B (a compound having 3 or more and less than 10 is denoted as B) | – | – |
| 8.4 | 0.82 | – | – | – | CCC[C@H]1C(=O)N[C@@H]([C@@H](C)CC)C(=O)N(C)CC(=O)N(C)[C@H]2C/C=C\CCN(C2=O)[C@@H](Cc2ccc(C(F)(F)F)cc2)C(=O)N(C)CC(=O)N[C@@H](CCc2cc(F)c(C(F)(F)F)c(F)c2)C(=O)N2CC3(CC3)C[C@H]2C(=O)N(C)C2(CCC2)C(=O)N(C)[C@@H](C(CC)CC)C(=O)N(C)[C@H](C(=O)N(C)C)CC(=O)N1C [PP3357] | A (a compound having 10 or more and less than 20 is denoted as A) | A (a compound having 10 or more and less than 20 is denoted as A) | – | – |
| – | – | – | 69.7 | 0.35 | CCO[C@@H]1C[C@H]2C(=O)NC3(CCC3)C(=O)N(C)[C@@H](C(CC)CC)C(=O)N(C)[C@H](C(=O)N3CCCC3)CC(=O)N(C)[C@@H](COC)C(=O)N[C@@H]([C@@H](C)CC)C(=O)N(C)CC(=O)N(C)[C@H]3C/C=C\CCN(C3=O)[C@@H](CC3CCC(F)(F)CC3)C(=O)N(C)CC(=O)N[C@@H](CCc3cc(F)c(C(F)(F)F)c(F)c3)C(=O)N2C1 [PP1440] | – | – | A (a compound having 10 or more and less than 20 is denoted as A) | AA (a compound having 20 or more is denoted as AA) |
